Laboratory results: patent US4618598A, “Method of regulating hormone function or release” (Duke University, priority 1982, dated 1986)
pIC50: −log10 of the molar value.

How the values were obtained:
pituitary cell cultures [1] = conditions: for effect on conjugate-stimulated LH release: Example 4, 2 mM EGTA (1.25 mM extracellular calcium), five micromolar Pimozide; for effect on LH release stimulated by dimer plus antibody: Example 7, 5 μM Pimozide or 2 mM EGTA, all titers, 1.5×10^-11 M dimer
Experimental: (§1) Luteinizing hormone release from pituitary cell cultures is dependent upon the binding of the gonadotropin releasing hormone to its specific cell surface receptor. […] In FIG. 2 the antagonist activity of GnRH-Ant was measured in a cell culture bioassay. Two day pituitary cell cultures were incubated with 10^-8 M, 10^-9 M, or no GnRH at the indicated concentration of antagonist. After the 5 h incubation period, the medium was assayed for LH by RIA using rat LH antisera (LHS-4), highly purified rat LH for labeling (LH I-4), and rat LH standard (LH-RP-1) which were made available by a grant from the NIAMDD Hormone Distribution Office (prepared by Dr. A. Parlow, Torrance, CA.). The assay was performed as described below, except that second antibody was used to separate the bound and free [^ 125 -I]-LH.
Cell cultures were prepared, by collagenase-hyaluronidase dispersion of pituitaries from 25-day-old female weanling rats. The cultures were then incubated for 2 days at 37 C. in culture plates. […] After the culture period, the cells were washed free of debris and sera with medium 199 containing 0.3% bovine serum albumin (Cohn fraction V; 199/BSA) and incubated with the indicated compounds. Medium 199 normally contains 1 mM Ca^2+. Cells were incubated in 1.0 ml medium for 3 h. After the incubation period, the supernatant fraction was removed from the cells (attached to the culture dish) with a Pasteur pipette and assayed for LH by RIA employing rat LH antisera (LHS-5), highly purified rat LH for labeling (LH-I-6), and rat LH standard (LH-RP-1), all of which were made available by the NIAMMD Hormone Distribution Office and were prepared by Dr. A. Parlow (Torrance, CA). The assay was performed, using immobile protein A to separate the bound and free [^125 I]LH. […] LH release was normalized by DNA determination in order to correct for slight differences in cell numbers in different assay wells.
Rabbit anti-D-Lys^6 -GnRH (antiserum No. 5111 prepared by immunization with D-Lys^6 coupled to bovine serum albumin (BSA) with glutaraldehyde) was added without additional purification in an amount sufficient to bind 8-10% of the dimer. The antibody was added in a final volume of 50 μl (with Medium 199 containing 0.3% BSA and 2 mg NaN3). The reaction ws allowed to proceed 10 h at room temperature and then 2 days at 10° C. Immediately before the cell bioassay, the solution was applied to a 12 ml calibrated G-75 column (10×260 mm) equilibrated in 199/BSA. Twenty drop fractions (about 300 μl) were collected and brought to 1.0 ml with 199/BSA. […] Where monovalent antibody is specified, the reduced pepsin fragment of antibody (No. 5111) was substituted for intact antibody in the conjugation described above. In this case ammonium sulfate fractionated IgG was dissolved in 50 mM acetate buffer, pH 4.5 and digested with pepsin (Worthington Biochemical Corp.) at an enzyme:substrate ratio of 1:100 for 50 min at […]. Digestion was stopped by neutralization with 1M Tris-HCL, pH 8.0 and 0.1N NaOH. Precipitated material was removed by centrifugation and 2-mercaptoethanol added to the supernatant at a final concentration of 0.75 mM. The solution was maintained at room temperature for 1 h, then cooled in ice cold water.

[2] = molecular target: T1, gonadotropin releasing hormone receptor (Rattus norvegicus, UniProt P30969); experiment: Competitive binding against [125-I] Buserelin on pituitary plasma membrane fraction
T1 construct: gonadotropin releasing hormone sites on a plasma membrane fraction from the rat pituitary; from tissue; host or cells: rat pituitary plasma membrane fraction
T1 sequence (P30969 1-327): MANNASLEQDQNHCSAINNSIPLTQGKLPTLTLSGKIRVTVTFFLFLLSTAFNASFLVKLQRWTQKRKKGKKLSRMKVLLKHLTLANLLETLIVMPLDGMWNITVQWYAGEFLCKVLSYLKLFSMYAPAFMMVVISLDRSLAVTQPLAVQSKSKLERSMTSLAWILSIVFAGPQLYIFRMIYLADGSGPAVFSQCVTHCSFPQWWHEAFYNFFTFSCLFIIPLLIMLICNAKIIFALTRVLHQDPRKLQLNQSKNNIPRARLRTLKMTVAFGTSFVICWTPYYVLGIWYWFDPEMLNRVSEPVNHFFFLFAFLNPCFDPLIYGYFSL
Source text: [125-I]-Tyr^5 -D-ser(tert-butyl)^6 -desGly^10 -Pro^9 ethylamid-GnRH ([125-I] Buserelin, Hoechst Pharmaceuticals) binds to the gonadotropin releasing hormone receptor sites on the plasma membrane. The ability to compete with the iodine labelled Buserelin indicates the relative affinity for the receptor. […] The data are expressed in terms of equivalents of releasing hormone analogue showing the radioligand bound in the presence of the indicated analogue concentration (B) compared to that bound in the absence of added analog (Bo).
The binding assay was conducted in polypropylene microfuge tubes which were precoated overnight with 1% BSA. The assay contained approximately 20,000 cpm of ^125 I-labeled Buserelin and 30 μg of membrane protein, in the presence or absence of 10^-5 M GnRH. In some competition experiments, the amount of added GnRH was altered as indicated. To determine the specificity of binding, des-pGlu^1 -GnRH (Bachem, Torrance, Calif.), D-Ala^6 -GnRH (Peninsula Laboratories, Inc., San Carlos, Calif.), D-Phe^2 -D-Ala^6 -GnRH (Wyeth Laboratories, Philadelphia, Pa.) TRH (Peninsula Laboratories), arg^8 -vasopressin (Calbiochem, San Diego, Calif.), or somatostatin (Beckman Instruments, Fullerton, Calif.) were added at the indicated concentrations. The final assay volume was 500 μl adjusted with 10 mM Tris-0.1% BSA. Following a 2-hr incubation on ice, bound and free hormone were separated by centrifugation. (Eppendorf microfuge, 12,800×g, 5 min) through 100 μl of 10% (w/v) sucrose. The tips of the tubes were cut off and radioactivity was determined by γ-spectroscopy. […] For some kinetic studies, bound hormone and free hormone were separated by the method of rapid filtration. Incubations were performed in triplicate. Specific binding was determined by subtracting nonspecific binding (in the presence of excess unlabeled GnRH) from total binding (no GnRH). Scatchard analysis of the binding data, using linear regression analysis to establish best-line fit, was used to determine the number and binding affinity of GnRH receptors. […]

pituitary cell cultures [3] = experiment: Inhibition of GnRH-stimulated LH release from pituitary cell cultures (antagonist function); type: cell-based, rat
Experimental: as §1, with “FIG. 2 illustrates the ability of the gonadotropin releasing hormone antagonist to inhibit gonadotropin releasing hormone-stimulated LH release from pituitary cell cultures. Luteinizing” for “Luteinizing”, “receptor. The GnRH-antagonist binds to this receptor and blocks stimulation by GnRH.” for “receptor.”
Cell cultures were prepared, by collagenase-hyaluronidase dispersion of pituitaries from 25-day-old female weanling rats. The cultures were then incubated for 2 days at 37 C. in culture plates. […]

Question: For CC(C)C[C@H](NC(=O)[C@@H](CCCCNC(=O)CCC(=O)OCCOC(=O)CCC(=O)NCCCC[C@@H](NC(=O)[C@H](Cc1ccc(O)cc1)NC(=O)[C@H](CO)NC(=O)[C@H](Cc1c[nH]c2ccccc12)NC(=O)[C@H](Cc1c[nH]cn1)NC(=O)[C@@H]1CCC(=O)N1)C(=O)N[C@@H](CC(C)C)C(=O)N[C@@H](CCCNC(=N)N)C(=O)N1CCC[C@H]1C(=O)NCC(N)=O)NC(=O)[C@H](Cc1ccc(O)cc1)NC(=O)[C@H](CO)NC(=O)[C@H](Cc1c[nH]c2ccccc12)NC(=O)[C@H](Cc1c[nH]cn1)NC(=O)[C@@H]1CCC(=O)N1)C(=O)N[C@@H](CCCNC(=N)N)C(=O)N1CCC[C@H]1C(=O)NCC(N)=O [(D-Lys^6 -GnRH)2 -EGS dimer], which “ED50 of LH release” value (pituitary cell cultures [1]) is on record?
Answer: The value was 0.8 nM.

Question: With CCNC(=O)[C@@H]1CCCN1C(=O)[C@H](CCCNC(=N)N)NC(=O)[C@H](CC(C)C)NC(=O)[C@@H](COC(C)(C)C)NC(=O)[C@H](Cc1ccc(O)cc1)NC(=O)[C@H](CO)NC(=O)[C@H](Cc1c[nH]c2ccccc12)NC(=O)[C@H](Cc1cnc[nH]1)NC(=O)[C@@H]1CCC(=O)N1 [Buserelin] as the molecule, how does the pIC50 [2] read?
Answer: Its pIC50 is about 10.00.

Question: For CC(C)C[C@H](NC(=O)[C@@H](CCCCN)NC(=O)[C@H](Cc1ccc(O)cc1)NC(=O)[C@H](CO)NC(=O)[C@H](Cc1c[nH]c2ccccc12)NC(=O)[C@H](Cc1c[nH]cn1)NC(=O)[C@@H]1CCC(=O)N1)C(=O)N[C@@H](CCCNC(=N)N)C(=O)N1CCC[C@H]1C(=O)NCC(N)=O [D-Lys^6 -GnRH, pyro glutamic acid-histidine-tryptophan-serine-tyrosine-D-lysine-leucine-arginine-proline-glycine-NH2], which “stimulated LH release” value (pituitary cell cultures [1]; Example 7, 10^-7 M) is on record?
Answer: Its value is 58±6 ng/100 ng DNA.

Question: What does the source list for O=C(O)CN(CCOCCOCCN(CC(=O)O)CC(=O)O)CC(=O)O [EGTA]?
Answer: effect on conjugate-stimulated LH release (pituitary cell cultures [1]): blocked; effect on LH release stimulated by dimer plus antibody (pituitary cell cultures [1]): diminished LH release to near basal

Question: Which results are given for O=c1[nH]c2ccccc2n1C1CCN(CCCC(c2ccc(F)cc2)c2ccc(F)cc2)CC1 [Pimozide]?
Answer: effect on conjugate-stimulated LH release (pituitary cell cultures [1]): blocked; effect on LH release stimulated by dimer plus antibody (pituitary cell cultures [1]): diminished LH release to near basal

Question: Which results are given for “D-pyroglumatic acid-D-phenylalanyl-D-tryptophanyl-D-lysyl-GnRH [GnRH-antagonist]”?
Answer: binding affinity compared with natural GnRH [2]: higher affinity than natural sequence releasing hormone; binding affinity relative to natural sequence gonadotropin releasing hormone ([2]; printed as less affinity than natural GnRH, in equivalents of monomeric hormone): about 50 fold; antagonist action on GnRH-stimulated LH release (pituitary cell cultures [3]): blocks the action of both 10^-8 molar and 10^-9 molar GnRH; pIC50 (pituitary cell cultures [3]; GnRH-stimulated (10^-9 molar), pituitary cultures, read-out: 50% inhibitory concentration (IC50) of GnRH-stimulated gonadotropin release): 9.70

Question: What does the source list for “GnRH: natural sequence gonadotropin releasing hormone (QHWSYGLRPG; Gonadoliberin-1; UniProt P01148 24-33, looked up)”?
Answer: LH release in response to GnRH (pituitary cell cultures [1]; Example 4, 10^-7 moles GnRH, five hour period): 13.6±0.9 ng LH/20 μL of medium; concentration at which maximum LH release is reached (pituitary cell cultures [1]; FIG. 6): 10^-7 molar
